Measurements from publication PMC12613816, “Discovery of Novel Isoxazole-Based Small-Molecule Toll-Like Receptor 8 Antagonists” (Journal of Medicinal Chemistry, 2025).

How the values were obtained:
TLR8 [1] = target: T1, TLR8 (Homo sapiens, UniProt Q9NR97); assay: Inhibition of TL8-506-stimulated NF-κB activity (SEAP reporter, QuantiBlue) in hTLR8-HEK293 reporter cells; type: cell-based; set-up: host or cells: HEK293 (HEK-Blue hTLR8); settings: TL8-506 (0.6 μM) 24 h
T1 sequence (Q9NR97 27-1041): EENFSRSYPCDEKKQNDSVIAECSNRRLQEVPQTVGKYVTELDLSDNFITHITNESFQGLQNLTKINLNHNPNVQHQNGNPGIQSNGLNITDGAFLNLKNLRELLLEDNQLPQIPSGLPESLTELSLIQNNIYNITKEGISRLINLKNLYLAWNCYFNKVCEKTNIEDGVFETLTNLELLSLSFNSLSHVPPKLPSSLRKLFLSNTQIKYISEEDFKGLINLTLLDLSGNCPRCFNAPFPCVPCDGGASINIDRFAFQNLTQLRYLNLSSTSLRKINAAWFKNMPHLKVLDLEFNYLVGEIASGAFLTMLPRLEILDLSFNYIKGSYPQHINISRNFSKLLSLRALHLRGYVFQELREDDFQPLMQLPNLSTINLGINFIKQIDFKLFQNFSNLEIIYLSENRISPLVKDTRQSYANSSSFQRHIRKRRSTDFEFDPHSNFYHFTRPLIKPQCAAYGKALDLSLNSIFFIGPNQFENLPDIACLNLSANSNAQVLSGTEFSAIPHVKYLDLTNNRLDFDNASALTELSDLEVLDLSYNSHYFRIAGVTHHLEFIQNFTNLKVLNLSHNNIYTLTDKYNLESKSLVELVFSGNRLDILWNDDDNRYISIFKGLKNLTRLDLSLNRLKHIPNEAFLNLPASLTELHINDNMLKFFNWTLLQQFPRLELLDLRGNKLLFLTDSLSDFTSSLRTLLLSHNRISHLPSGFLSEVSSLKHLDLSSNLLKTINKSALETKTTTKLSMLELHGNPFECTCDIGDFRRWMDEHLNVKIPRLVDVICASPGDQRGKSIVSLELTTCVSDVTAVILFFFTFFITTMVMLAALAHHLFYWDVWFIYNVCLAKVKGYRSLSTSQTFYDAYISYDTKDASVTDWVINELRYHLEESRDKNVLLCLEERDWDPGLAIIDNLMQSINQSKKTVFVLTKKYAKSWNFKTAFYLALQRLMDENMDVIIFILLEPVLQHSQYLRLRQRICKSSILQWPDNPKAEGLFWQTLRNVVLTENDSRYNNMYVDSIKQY

TLR8 [2] = target: T1, TLR8; assay: Inhibition of TL8-506-stimulated TNF release (ELISA) in PBMCs; settings: read-out: IC50 [μM] (95% CI) TNF release PBMCs, 1 h preincubation, TL8-506 (0.6 μM) 4 h
Source text: For the calculation of concentration–response curves, nonlinear regression with variable slope (four parameters) was used. Mean ± SEM (n = 3).
PMBCs were washed three times with PBS containing ETDA and afterward seeded in 24-well plates (5 × 10^6 cells/well).

TLR8 F495L mutation = target: T2, TLR8 F495L mutation (Homo sapiens, UniProt Q9NR97, F495L); assay: NF-κB SEAP reporter in HEK293 reporter control cells transfected with TLR8 F495L mutant plasmid; type: cell-based; settings: compound 10 2 μM, Enpatoran 1 μM; TL8-506 3 μM or CL075 4 μM, 24 h
T2 construct: host or cells: HEK-Blue Null1 cells, transient transfection with PEI Max
T2 sequence (Q9NR97 1-1059 isoform Q9NR97-2 F513L): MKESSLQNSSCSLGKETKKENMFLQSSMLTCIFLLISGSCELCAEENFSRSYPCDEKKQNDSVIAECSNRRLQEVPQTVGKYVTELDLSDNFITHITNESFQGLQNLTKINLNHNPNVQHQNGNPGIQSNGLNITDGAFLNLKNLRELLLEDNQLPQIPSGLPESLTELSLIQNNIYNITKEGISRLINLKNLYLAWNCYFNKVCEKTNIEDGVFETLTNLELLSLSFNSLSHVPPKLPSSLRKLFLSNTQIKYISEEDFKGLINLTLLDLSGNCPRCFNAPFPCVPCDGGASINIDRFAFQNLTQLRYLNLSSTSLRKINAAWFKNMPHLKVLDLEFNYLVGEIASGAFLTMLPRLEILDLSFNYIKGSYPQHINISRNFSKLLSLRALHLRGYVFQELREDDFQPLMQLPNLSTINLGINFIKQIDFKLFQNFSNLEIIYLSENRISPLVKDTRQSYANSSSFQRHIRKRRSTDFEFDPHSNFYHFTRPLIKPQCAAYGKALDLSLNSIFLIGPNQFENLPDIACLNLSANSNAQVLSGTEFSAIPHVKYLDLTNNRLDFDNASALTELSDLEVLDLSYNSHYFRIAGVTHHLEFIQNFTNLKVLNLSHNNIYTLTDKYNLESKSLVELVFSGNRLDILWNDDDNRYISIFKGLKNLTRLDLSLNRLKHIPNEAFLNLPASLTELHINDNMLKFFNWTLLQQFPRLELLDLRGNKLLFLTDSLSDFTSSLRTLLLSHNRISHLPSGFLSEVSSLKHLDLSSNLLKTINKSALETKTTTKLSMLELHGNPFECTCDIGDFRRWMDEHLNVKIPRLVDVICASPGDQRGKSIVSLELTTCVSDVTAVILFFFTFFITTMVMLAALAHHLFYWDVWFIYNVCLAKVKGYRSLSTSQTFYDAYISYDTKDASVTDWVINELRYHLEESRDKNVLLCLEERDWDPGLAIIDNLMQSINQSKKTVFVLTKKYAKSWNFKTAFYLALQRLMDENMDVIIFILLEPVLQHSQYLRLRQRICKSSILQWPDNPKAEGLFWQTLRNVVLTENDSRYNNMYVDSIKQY

hTLR7 = target: T3, hTLR7 (Homo sapiens, UniProt Q9NYK1); assay: Inhibition of CL307-stimulated NF-κB activity (SEAP reporter) in hTLR7-HEK293 reporter cells; type: cell-based; settings: read-out: IC50 [μM] (95% CI) hTLR7-HEK293; inhibition of NF-κB activity; 1 h preincubation, CL307 (1.7 µM) 24 h
T3 construct: host or cells: HEK293 (HEK-Blue hTLR7)
T3 sequence (Q9NYK1 27-1049): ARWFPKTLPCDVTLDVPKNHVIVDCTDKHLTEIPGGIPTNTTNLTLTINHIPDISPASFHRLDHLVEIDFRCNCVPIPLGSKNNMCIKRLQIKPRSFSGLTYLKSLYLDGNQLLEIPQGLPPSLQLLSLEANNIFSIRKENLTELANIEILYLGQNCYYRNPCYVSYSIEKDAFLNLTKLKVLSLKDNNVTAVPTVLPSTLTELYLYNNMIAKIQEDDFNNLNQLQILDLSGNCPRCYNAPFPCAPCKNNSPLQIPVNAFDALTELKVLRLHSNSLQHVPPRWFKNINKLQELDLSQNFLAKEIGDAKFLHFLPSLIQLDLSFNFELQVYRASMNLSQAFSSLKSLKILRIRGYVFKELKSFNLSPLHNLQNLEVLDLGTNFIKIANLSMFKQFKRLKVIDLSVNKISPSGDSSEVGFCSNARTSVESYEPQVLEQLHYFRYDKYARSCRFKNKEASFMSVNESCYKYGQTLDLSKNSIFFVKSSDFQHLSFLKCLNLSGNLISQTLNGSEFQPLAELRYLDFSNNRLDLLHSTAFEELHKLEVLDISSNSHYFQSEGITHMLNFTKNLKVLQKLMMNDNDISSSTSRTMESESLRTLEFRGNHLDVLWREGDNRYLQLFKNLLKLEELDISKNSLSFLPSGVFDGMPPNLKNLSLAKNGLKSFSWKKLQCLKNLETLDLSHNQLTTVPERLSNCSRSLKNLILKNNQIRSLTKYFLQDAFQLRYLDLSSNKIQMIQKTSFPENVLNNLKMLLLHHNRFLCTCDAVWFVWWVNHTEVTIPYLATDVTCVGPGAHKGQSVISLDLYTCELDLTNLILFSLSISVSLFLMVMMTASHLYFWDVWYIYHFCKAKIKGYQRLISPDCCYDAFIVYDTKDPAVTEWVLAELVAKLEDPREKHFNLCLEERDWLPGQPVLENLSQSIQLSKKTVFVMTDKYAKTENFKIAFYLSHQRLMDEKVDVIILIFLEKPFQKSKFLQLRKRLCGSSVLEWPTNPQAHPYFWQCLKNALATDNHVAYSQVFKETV
Source text: For stimulation experiments, cells were washed with phosphate-buffered saline (PBS, Sigma-Aldrich) and media was replaced with OptiMEM (Thermo Fisher Scientific, Darmstadt, Germany). […] The following TLR ligands were used: Pam2CSK4, Pam3CSK4, poly(I:C) (HMW), LPS from Escherichia coli O111:B4 (LPS-EB Ultrapure), flagellin from Bacillus subtilis (flagellin-BS Ultrapure), CL307, CL075, R848, TL8-506, ODN2006 (all from InvivoGen, Toulouse, France), and Enpatoran (BIOZOL Diagnostika, Germany).

N#Cc1ccc(N2C[C@H](N)C[C@H](C(F)(F)F)C2)c2cccnc12 [Enpatoran, reference compound]
inhibition at 10 µM (TLR8 [1]; read-out: % inhibition at 10 µM ± SEM (NF-κB activity), 10 µM compound, hTLR8-HEK293): 100%
IC50 (TLR8 [1]; read-out: IC50 [μM] (95% CI) hTLR8-HEK293, inhibition of NF-κB activity, 1 h preincubation): 0.285 µM
IC50 (TLR8 [2]): 0.074 µM
TLR8 activation in F495L mutation, triggered by CL075 and TL8-506 (TLR8 F495L mutation): reduced
IC50 (hTLR7): ≤ 0.05 µM
